Measurements reported in patent publication US10233186B2, “Inhibitors of activin receptor-like kinase” (BLUEPRINT MEDICINES CORPORATION, priority 2016, dated 2019).

Assays:
[1] = target: T1, ALK2 R206H (GST-tagged mutant ALK2) (Homo sapiens, UniProt Q04771, R206H); experiment: ALK binding assay (LANTHASCREEN TR-FRET competitive binding, displacement of Kinase Tracer 178); settings: ALK2 R206H, LANTHASCREEN TR-FRET competitive binding; read-out: Binding Assay (IC50)
T1 construct: purchased Carna Bioscience or ThermoFisher 09-148 or PV6232
T1 sequence (Q04771 21-509 R206H): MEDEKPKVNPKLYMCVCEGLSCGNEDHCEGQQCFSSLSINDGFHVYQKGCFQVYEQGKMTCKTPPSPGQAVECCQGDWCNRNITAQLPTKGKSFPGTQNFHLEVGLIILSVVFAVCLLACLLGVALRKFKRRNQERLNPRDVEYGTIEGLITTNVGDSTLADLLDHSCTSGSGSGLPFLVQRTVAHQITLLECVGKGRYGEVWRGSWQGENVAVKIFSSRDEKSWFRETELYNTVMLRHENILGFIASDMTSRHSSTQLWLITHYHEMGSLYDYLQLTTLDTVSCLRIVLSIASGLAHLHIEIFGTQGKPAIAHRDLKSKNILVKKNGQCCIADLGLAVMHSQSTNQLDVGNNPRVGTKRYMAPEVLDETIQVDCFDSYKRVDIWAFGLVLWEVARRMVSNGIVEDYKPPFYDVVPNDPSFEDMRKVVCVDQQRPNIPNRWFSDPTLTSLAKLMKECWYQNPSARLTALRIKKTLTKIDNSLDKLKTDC

[2] = target: T2, human ALK2 R206H (Homo sapiens, UniProt Q04771, R206H); experiment: Cell-based ALK2-R206H cell activity assay (Smad1-Ser463/Ser465 phosphorylation by AlphaLISA in HEK293-ALK2-R206H cells); settings: read-out: Cell Line (Cell Assay IC50)
T2 construct: expressed in transfected cells; host or cells: HEK293 (ATCC CRL1573), lentivirus transduction, blasticidin selection
T2 sequence (Q04771 21-509 R206H): T1 sequence (Q04771 21-509 R206H)
In short: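 Stable HEK293 cells expressing C-terminally FLAG-tagged human ALK2 R206H (lentiviral, blasticidin-selected) were treated with compounds in 10-point, 3-fold dilutions from 10 μM or 1 μM top, in duplicate. Smad1 Ser463/Ser465 phosphorylation was read by AlphaLISA.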

SMILES	IC50 [1] [nM]	IC50 [2] [nM]
N#C[C@H]1CC[C@H](C(=O)N2CCN(c3ccnn4cc(-c5ccc(C6CNCCO6)cc5)cc34)CC2)CC1 (stereo partly shown) [Compound 375]	< 10	< 100
O=C(C1CC1)N1CCN(c2ccnn3cc(-c4ccc(N5CCN(C6COC6)CC5)cc4)cc23)CC1 [Compound 314, cyclopropyl(4-(6-(4-(4-(oxetan-3-yl)piperazin-1-yl)phenyl)pyrrolo[1,2-b]pyridazin-4-yl)piperazin-1-yl)methanone]	10 to 50	> 500
CC(C)N1CCC(c2ccc(-c3cc4c(N5CCN(C(=O)OCC(F)F)CC5)ccnn4c3)cc2)CC1 [Compound 652]	< 10	< 100
CCN1CC2(C1)CN(c1ccc(-c3cc4c(N5CCN(C(=O)[C@H]6C[C@H]6F)CC5)ccnn4c3)cc1)C2 [Compound 333]	< 10	< 100
CC(C)N1CCC(c2ccc(-c3cc4c(N5CCN(C(=O)[C@H]6C[C@](C)(O)C6)CC5)ccnn4c3)cc2)CC1 [Compound 420]	< 10	< 100
COC1(c2ccc(-c3cc4c(N5CCN(C(=O)[C@H]6C[C@H](C#N)C6)CC5)ccnn4c3)nc2)CCN(C(C)C)CC1 [Compound 731]	< 10	< 100
O=C(C1CCC1)N1CCN(c2ccnn3cc(-c4ccc(C5(F)CCCNC5)cc4)cc23)CC1 (stereo not shown) [Compound 229]	< 10	< 100
CN1CCN(c2ccc(-c3cc4c(N5CCN(C(=O)C6CC6)CC5)ccnn4c3)cc2)CC1 [Compound 153]	< 10	100 to 500
O=C(C1CC1)N1CCN(c2ccnn3cc(-c4ccc(C5CNCC5F)cc4)cc23)CC1 (stereo not shown) [Compound 137]	< 10	< 100
CC(C)NC(C)(C)c1ccc(-c2cc3c(N4CCN(C(=O)C5CC5)CC4)ccnn3c2)cc1 [Compound 473]	< 10	< 100
CC(C)N1CCC[C@@H](c2ccc(-c3cc4c(N5CCN(C(=O)OCCC#N)CC5)ccnn4c3)cc2)C1 [Compound 810]	< 10	< 100
CC(C)N1CCC[C@@H](c2ccc(-c3cc4c(N5CCN(C(=O)OC6(C)COC6)CC5)ccnn4c3)cc2)C1 [Compound 827]	< 10	100 to 500
CC1OCC1OC(=O)N1CCN(c2ccnn3cc(-c4ccc([C@@H]5CCCN(C(C)C)C5)cc4)cc23)CC1 (stereo partly shown) [Compound 828]	< 10	100 to 500
CCOC1(c2ccc(-c3cc4c(N5CCN(C(=O)O[C@H]6CCOC6)CC5)ccnn4c3)nc2)CCN(C(C)C)CC1 [Compound 877]	< 10	< 100
CCOC1(c2ccc(-c3cc4c(N5CCN(C(=O)OC6CN(C(C)=O)C6)CC5)ccnn4c3)nc2)CCN(C(C)C)CC1 [Compound 895]	< 10	100 to 500
CCN1CCN(c2ccc(-c3cc4c(N5CCN(C(=O)[C@H]6CC[C@H](C#N)CC6)CC5)ccnn4c3)cc2)CC1 [Compound 429]	< 10	< 100
COC1(c2ccc(-c3cc4c(N5CCN(C(=O)OC6COC6)CC5)ccnn4c3)nc2)CCN(C(C)C)CC1 [Compound 846]	< 10	< 100
CCO[C@]1(c2ccc(-c3cc4c(N5CCN(C(=O)NC(C)C)CC5)ccnn4c3)cc2)CCN(C(C)C)C1 [Compound 676]	< 10	< 100
CC(C)N1CC[C@H](c2ccc(-c3cc4c(N5CCN(C(=O)C6CC6)CC5)ccnn4c3)nc2)C1 [Compound 486]	< 10	< 100
O=C(C1CC1)N1CCN(c2ccnn3cc(-c4ccc(C5CCCN5)cn4)cc23)CC1 (stereo not shown) [Compound 454]	< 10	100 to 500
